Where two headings read alike, the source gives them in different places.
Tests used:
[1] = cited from earlier work
[2] = Relative bioavailability of intranasal versus oral betahistine in humans, Example 6; type: in vivo; conditions: human
Description: (Journal of Psychopharmacology, 2016, Vol. 30(3) 237-241). In brief, in this study, forty-eight healthy women were recruited and randomized to receive per os (i.e. orally) either betahistine 144 mg/day (48 mg t.i.d.) or matching placebo for 4 weeks. […] Study medication (betahistine or matching placebo) was administered at least 30 minutes prior to eating. On Day 8, blood samples of 6 mL each were collected at 8 am, and 30, 60, 150 and 300 minutes thereafter. Plasma concentrations of betahistine and its metabolite 2-PAA were determined by high-performance liquidy chromatography.

[3] = Single-dose and repeat-dose intranasal toxicology study in beagle dogs (safety); type: in vivo; conditions: dog
Description: Salivation after betahistine treatment was previously reported to occur in dogs, it was transient in nature in the present study and resolved quickly. Body weights, clinical pathology and gross necropsy findings were unremarkable.

[4] = Single ascending-dose clinical trial of intranasal betahistine in healthy volunteers (safety); type: in vivo; conditions: human
Description: The safety and pharmacokinetic profile of intranasal betahistine was further evaluated in a double-blind, randomized, placebo-controlled, single ascending-dose clinical trial involving a total of 32 healthy male and female volunteers. The main inclusion criteria were that subjects had to be aged 18-45 years and show a body mass index within the range of 18-30 kg/m^2. Subjects were required to fast for 8 hours prior to study drug administration and for 2 hours post-dose.
The betahistine was supplied as a 50 and 200 mg/mL solution in a HDPE bottle and spray pump pack (Aptar Classic Line) that delivers an accurate 100 μL per actuation. The study drug was delivered into the right nostril of subjects while they were in a supine position. For the 5 and 20 mg doses, one application of 50 and 200 mg/mL, respectively, was needed, whereas for the 10 and 40 mg doses, two applications of 50 and 200 mg/mL were required.

[5] = Oral betahistine study in healthy women, Barak et al.; type: in vivo; conditions: human, oral 48 mg (0.8 mg/kg), Barak et al. data
Description: For the calculation of the relative bioavailability of intranasal betahistine compared to peroral betahistine, the area under the concentration-time curve (AUC) determined in Example 3 was compared to the AUC determined in a study with oral betahistine in healthy volunteers described in Barak et al. (Journal of Psychopharmacology, 2016, Vol. 30(3) 237-241). In brief, in this study, forty-eight healthy women were recruited and randomized to receive per os (i.e. orally) either betahistine 144 mg/day (48 mg t.i.d.) or matching placebo for 4 weeks. Their mean weight was 60.2 kg in the active-treated group (n=24) and 59.8 kg in the placebo group (n=24). Study medication (betahistine or matching placebo) was administered at least 30 minutes prior to eating. On Day 8, blood samples of 6 mL each were collected at 8 am, and 30, 60, 150 and 300 minutes thereafter. Plasma concentrations of betahistine and its metabolite 2-PAA were determined by high-performance liquidy chromatography.

[6] = Toxicokinetic assessment of plasma betahistine and 2-PAA after intranasal betahistine (LC-MS/MS), Example 2; conditions: both, beagle, dog, inhaled or intranasal
Description: (§1) The safety and pharmacokinetic profile of intranasal betahistine was first evaluated in a single dose toxicology study in male and female beagle dogs (14-21 months of age, weight 8.2-11.8 kg). Both the vehicle and test article were delivered in a single dose via a nasal spray pump (Aptar Classic Line) with a delivery volume of 100 μL into both nostrils at total dose levels of 0 (vehicle), 4, 20 or 80 mg of betahistine dihydrochloride. Each treatment group was made up of 1 dog/sex.
(§2) Plasma concentrations were measured with liquid chromatographic tandem mass spectrometry (LC-MS/MS; SCIEX API 5000 for betahistine and SCIEX API 4000 for 2-pyridylacetic acid (2-PAA)) with a validated method. Betahistine-^13CD3 dihydrochloride and 2-PAA-D4 hydrochloride served as internal standards. The standard calibration range—using a plasma sample volume of 0.05 mL—for betahistine was 0.05 to 50 ng/mL and for 2-PAA it was 1 to 1000 ng/mL. The limit of quantitation was 0.05 ng/mL for betahistine and 1.0 ng/mL for 2-PAA.
(§3) In case of betahistine, the method involved a liquid-liquid extraction; in case of 2-PAA it involved protein precipitation. For betahistine, plasma samples were extracted under basic conditions with an organic solvent; the organic phase was dried and reconstituted in reconstitution solvent. Approximately 0.1 mL of the aqueous layer was transferred into polypropylene vials for LC-MS/MS analysis. For 2-PAA, plasma samples were precipitated with a mixture of organic solvents, supernatant was diluted and 0.12 mL was transferred into polypropylene vials for LC-MS/MS analysis. Sample analysis was conducted using reversed phase chromatography.

[7] = Relative bioavailability of intranasal versus oral betahistine in humans, Example 6; type: in vivo; conditions: human; remark: listed apart in the source
[8] = both, beagle, dog, in vivo, 1 h
Description: as §1, §2, §3

[9] = intranasal single and repeated dose

CNCCc1ccccn1 [betahistine]
plasma half-life ([1]; betahistine, humans): 180 to 240 min
Cmax ([1]; human, oral betahistine 24 mg, Chen et al.): < 0.5 ng/mL
absolute bioavailability ([1]; orally administered betahistine, estimated (SmPC)): around 1%
bioavailability with intranasal administration higher than with oral administration [2]: 20-40 times
relative bioavailability fold factor ([2]; 40 mg intranasal vs. 48 mg per os): 41.1 ×
relative bioavailability of oral vs. intranasal ([2]; Barak et al. oral AUC vs Example 3 intranasal AUC): approximately 2.4%
Rel. Bioavail. ([2]; intranasal 5 mg relative to oral 48 mg (Barak et al.)): 19.9
Rel. Bioavail. ([2]; intranasal 10 mg relative to oral 48 mg (Barak et al.)): 24.2
Rel. Bioavail. ([2]; intranasal 20 mg relative to oral 48 mg (Barak et al.)): 37.0
Rel. Bioavail. ([2]; intranasal 40 mg relative to oral 48 mg (Barak et al.)): 41.1
test article-related clinical signs ([3]; intranasal 80 mg single dose and repeated dose 240 mg/day, transient): mild to moderate salivation
body weights, clinical pathology and gross necropsy findings [3, 9]: unremarkable
microscopic findings [3, 9]: No adverse treatment-related microscopic findings
hematology, biochemistry, urinalysis, vital signs and electrocardiogram assessments ([4]; active- versus placebo-treated subjects): no differences
tolerability ([4]; intranasal 5, 10, 20 and 40 mg): well tolerated
AUC/Dose [5]: 0.15 (h · ng/mL)/(mg/kg)
Tmax [6]: 5 min
Cmax ([6]; 4 mg): 26 ng/mL
Cmax ([6]; 20 mg): 81 ng/mL
Cmax ([6]; 80 mg): 248 ng/mL
AUC/Dose ([7]; intranasal 5 mg (0.07 mg/kg)): 3.01 (h · ng/mL)/(mg/kg)
AUC/Dose ([7]; intranasal 10 mg (0.15 mg/kg)): 3.67 (h · ng/mL)/(mg/kg)
AUC/Dose ([7]; intranasal 20 mg (0.29 mg/kg)): 5.60 (h · ng/mL)/(mg/kg)
AUC/Dose ([7]; intranasal 40 mg (0.57 mg/kg)): 6.21 (h · ng/mL)/(mg/kg)
decline of plasma concentration [8]: more than 90%

Reference: patent US20200022963A1, “PHARMACEUTICAL COMPOSITION COMPRISING BETAHISTINE” (Otolanum AG, priority 2017, published 2020)
